Data: article PMC3384716 (Steroids, 2012)

Legend:
pS2 mRNA = experiment: qRT-PCR of 17β-estradiol-induced pS2 mRNA; type: cell-based; details: 2 hours; compound 51 at 5 μM
ER = biological target: T1, ER (Homo sapiens, UniProt P03372); experiment: ER reporter gene assay; type: cell-based; details: for Reporter Assay (% Activity) ER / inhibition of ER transactivation (in words): 10 μM compound; for Reporter Assay (% Activity) ER: 5 nM estradiol, 24 h, % of maximal luciferase activity (100%)
T1 sequence (P03372 1-595): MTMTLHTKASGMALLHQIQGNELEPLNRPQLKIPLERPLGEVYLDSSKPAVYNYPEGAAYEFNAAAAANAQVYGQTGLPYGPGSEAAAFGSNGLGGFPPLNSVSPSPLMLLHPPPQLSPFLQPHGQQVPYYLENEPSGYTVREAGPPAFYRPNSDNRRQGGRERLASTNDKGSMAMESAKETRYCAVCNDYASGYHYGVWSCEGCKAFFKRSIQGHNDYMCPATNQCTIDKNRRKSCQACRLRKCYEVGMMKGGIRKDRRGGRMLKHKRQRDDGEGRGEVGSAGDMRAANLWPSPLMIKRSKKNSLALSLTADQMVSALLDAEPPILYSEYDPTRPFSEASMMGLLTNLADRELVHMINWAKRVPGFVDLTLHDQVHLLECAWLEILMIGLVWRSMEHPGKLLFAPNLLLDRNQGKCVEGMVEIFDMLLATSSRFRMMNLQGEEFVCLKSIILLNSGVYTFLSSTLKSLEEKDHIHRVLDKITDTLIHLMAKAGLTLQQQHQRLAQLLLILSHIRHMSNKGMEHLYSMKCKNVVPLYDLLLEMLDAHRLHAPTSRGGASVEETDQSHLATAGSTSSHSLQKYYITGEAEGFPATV

PR = biological target: T2, PR (Homo sapiens, UniProt P06401); experiment: PR reporter gene assay; type: cell-based; details: for inhibition of PR transactivation (in words): 10 μM compound
T2 sequence (P06401 165-933 limits assumed): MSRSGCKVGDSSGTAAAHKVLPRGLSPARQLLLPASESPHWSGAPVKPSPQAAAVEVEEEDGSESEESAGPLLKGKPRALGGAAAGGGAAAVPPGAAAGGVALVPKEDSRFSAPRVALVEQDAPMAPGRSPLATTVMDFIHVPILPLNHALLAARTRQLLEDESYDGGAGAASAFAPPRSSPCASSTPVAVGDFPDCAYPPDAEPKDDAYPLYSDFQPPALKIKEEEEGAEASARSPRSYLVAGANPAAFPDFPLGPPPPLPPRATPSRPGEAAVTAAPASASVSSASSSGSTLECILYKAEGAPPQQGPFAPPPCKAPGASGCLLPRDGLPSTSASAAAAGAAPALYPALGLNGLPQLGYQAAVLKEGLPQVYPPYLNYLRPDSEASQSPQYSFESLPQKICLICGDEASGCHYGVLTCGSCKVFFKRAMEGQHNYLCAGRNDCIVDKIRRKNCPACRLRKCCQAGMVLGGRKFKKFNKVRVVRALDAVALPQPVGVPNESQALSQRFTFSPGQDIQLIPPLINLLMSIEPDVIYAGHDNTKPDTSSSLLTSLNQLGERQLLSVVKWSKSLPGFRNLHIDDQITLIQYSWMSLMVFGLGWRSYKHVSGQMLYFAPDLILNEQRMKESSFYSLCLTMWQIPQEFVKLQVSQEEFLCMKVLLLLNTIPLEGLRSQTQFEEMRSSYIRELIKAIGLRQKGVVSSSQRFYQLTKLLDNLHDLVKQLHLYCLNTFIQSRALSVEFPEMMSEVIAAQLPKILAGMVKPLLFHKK

GR = biological target: T3, GR (Rattus norvegicus, UniProt P06536); experiment: GR reporter gene assay; type: cell-based, human; details: 10 μM compound
T3 sequence (P06536 1-795): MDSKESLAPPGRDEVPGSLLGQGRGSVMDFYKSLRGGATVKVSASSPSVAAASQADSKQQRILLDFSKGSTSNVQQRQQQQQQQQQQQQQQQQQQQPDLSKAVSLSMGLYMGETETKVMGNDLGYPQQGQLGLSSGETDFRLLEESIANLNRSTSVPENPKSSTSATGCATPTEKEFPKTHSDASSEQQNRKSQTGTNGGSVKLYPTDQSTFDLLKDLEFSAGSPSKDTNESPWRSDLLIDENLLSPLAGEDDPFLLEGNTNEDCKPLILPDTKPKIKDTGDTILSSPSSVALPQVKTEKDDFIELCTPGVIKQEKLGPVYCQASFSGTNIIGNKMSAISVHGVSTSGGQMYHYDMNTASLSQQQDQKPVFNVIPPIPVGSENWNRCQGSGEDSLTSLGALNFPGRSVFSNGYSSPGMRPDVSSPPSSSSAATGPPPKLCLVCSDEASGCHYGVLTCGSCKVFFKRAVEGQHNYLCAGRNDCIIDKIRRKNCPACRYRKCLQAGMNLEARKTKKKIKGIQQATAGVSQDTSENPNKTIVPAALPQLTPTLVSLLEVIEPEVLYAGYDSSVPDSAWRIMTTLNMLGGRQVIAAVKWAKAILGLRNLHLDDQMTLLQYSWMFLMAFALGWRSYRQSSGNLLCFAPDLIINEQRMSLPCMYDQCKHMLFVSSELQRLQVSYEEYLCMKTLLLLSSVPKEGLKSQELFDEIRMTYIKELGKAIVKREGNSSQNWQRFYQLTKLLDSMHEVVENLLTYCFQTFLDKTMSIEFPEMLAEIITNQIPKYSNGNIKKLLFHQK

AR = biological target: T4, AR (Homo sapiens, UniProt P10275); experiment: AR reporter gene assay; type: cell-based; details: 10 μM compound
T4 sequence (P10275 1-920): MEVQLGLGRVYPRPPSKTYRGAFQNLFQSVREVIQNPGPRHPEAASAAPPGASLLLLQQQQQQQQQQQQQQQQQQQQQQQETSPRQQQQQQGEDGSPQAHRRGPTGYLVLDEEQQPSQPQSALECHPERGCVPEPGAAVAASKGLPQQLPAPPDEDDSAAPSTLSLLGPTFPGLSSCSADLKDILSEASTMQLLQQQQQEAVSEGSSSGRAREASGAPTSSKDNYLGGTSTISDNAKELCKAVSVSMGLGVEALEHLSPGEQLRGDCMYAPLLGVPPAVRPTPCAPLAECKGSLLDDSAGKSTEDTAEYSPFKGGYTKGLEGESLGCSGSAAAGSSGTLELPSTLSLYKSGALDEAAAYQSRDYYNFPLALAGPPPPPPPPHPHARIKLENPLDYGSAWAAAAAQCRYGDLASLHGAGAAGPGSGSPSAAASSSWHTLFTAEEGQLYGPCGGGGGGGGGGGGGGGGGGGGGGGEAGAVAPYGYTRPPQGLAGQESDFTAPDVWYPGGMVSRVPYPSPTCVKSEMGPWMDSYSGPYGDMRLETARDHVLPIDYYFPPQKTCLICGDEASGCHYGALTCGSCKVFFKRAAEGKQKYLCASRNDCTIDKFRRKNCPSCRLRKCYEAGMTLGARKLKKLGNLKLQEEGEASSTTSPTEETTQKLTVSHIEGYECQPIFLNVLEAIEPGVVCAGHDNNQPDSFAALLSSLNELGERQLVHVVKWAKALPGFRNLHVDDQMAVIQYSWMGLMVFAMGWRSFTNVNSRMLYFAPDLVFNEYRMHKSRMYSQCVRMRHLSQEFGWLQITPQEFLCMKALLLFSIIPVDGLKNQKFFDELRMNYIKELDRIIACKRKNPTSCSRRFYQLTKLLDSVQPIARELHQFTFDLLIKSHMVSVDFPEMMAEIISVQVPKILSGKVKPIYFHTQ

Row | SMILES | Reporter Assay (% Activity) ER (ER) [%] | also measured
1 | C[C@]12CC[C@@H]3c4ccc(O)cc4C[C@@H](CCCCCCCCC[S+]([O-])CCCC(F)(F)C(F)(F)F)[C@H]3[C@@H]1CC[C@@H]2O (stereo partly shown) [ICI 182,780, reference compound] |  | effect on 17β-estradiol induction of pS2 mRNA (pS2 mRNA): inhibited induction of pS2 mRNA
2 | Cn1c(=O)c2[nH]c(SCc3ccccc3)nc2n(C)c1=O [Compound 8] | 104 | 
3 | CCCSc1nc2c([nH]1)c(=S)n(C)c(=S)n2C [Compound 19] | 79 | 
4 | CCc1nc2c([nH]1)c(=O)n(C)c(=O)n2C [Compound 2] | 106 | 
5 | Cn1c(=O)c2[nH]c(Cc3ccccc3)nc2n(C)c1=O [Compound 4] | 94 | 
6 | CSc1nc2c([nH]1)c(=O)n(C)c(=O)n2C [Compound 10] | 6 | 
7 | Cn1c(=O)c2[nH]cnc2n(C)c1=O [Compound 1, Theophylline, reference compound] |  | inhibition of ER transactivation (in words) (ER): did not inhibit; activity at 10 µM (ER; read-out: Reporter Assay (% Activity) ER): 93%; inhibition of PR transactivation (in words) (PR): did not inhibit; activity at 10 µM (PR; T47D, read-out: Reporter Assay (% Activity) PR): 105%
8 | CSc1nc2c([nH]1)c(=S)n(C)c(=S)n2C [Compound 13] | 101 | 
9 | CCCCCCCCCCSc1nc2c([nH]1)c(=O)n(C)c(=O)n2C [Compound 37] | 109 | 
10 | CCCSc1nc2c([nH]1)c(=O)n(C)c(=O)n2C [Compound 7] | 111 | 
11 | CCCCc1nc2c([nH]1)c(=O)n(C)c(=O)n2C [Compound 3] | 88 | 
12 | CCCC(C)Sc1nc2c([nH]1)c(=S)n(C)c(=O)n2C (stereo not shown) [Compound 45] | 94 | inhibition of ER transactivation (in words) (ER): no activity; inhibition of GR transactivation (in words) (GR): no activity; inhibition of PR transactivation (in words) (PR): moderately potent inhibitors; inhibition of AR transactivation (in words) (AR): no activity
